Assay results as given in ChEMBL document CHEMBL1201862, “PubChem BioAssay data set” (2004).
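Method: 48-hour compound exposure of cells in 96-well plates, five concentrations, linear interpolation of endpoints. The concentration for 50% growth inhibition is given as GI50.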 The source made the active and inactive calls. Rule as the data show it: active = GI50 up to about 1.1 µM and inactive = higher.

Assays:
Experiment in all cases: NCI tumour cell line growth inhibition, 48 h
SK-MEL-2 = system: SK-MEL-2
NCI-H23 = system: NCI-H23
SF-539 = system: SF-539
786-0 = system: 786-0
HCC 2998 = system: HCC 2998
SN12C = system: SN12C
UACC-62 = system: UACC-62
ACHN = system: ACHN
HCT-116 = system: HCT-116
OVCAR-3 = system: OVCAR-3
MCF7 = system: MCF7
HCT-15 = system: HCT-15
HT-29 = system: HT-29
SR = system: SR
CAKI-1 = system: CAKI-1
CCRF-CEM = system: CCRF-CEM
HL-60 = system: HL-60
K562 = system: K562
Malme-3M = system: Malme-3M
TK-10 = system: TK-10
OVCAR-5 = system: OVCAR-5
NCI-H522 = system: NCI-H522
M14 = system: M14
Hs-578T = system: Hs-578T
SF-295 = system: SF-295
LOX IMVI = system: LOX IMVI
SF-268 = system: SF-268
A549 = system: A549
UO-31 = system: UO-31
SNB-75 = system: SNB-75
MDA-MB-231 = system: MDA-MB-231
MOLT-4 = system: MOLT-4
SK-MEL-5 = system: SK-MEL-5
MDA-MB-435 = system: MDA-MB-435
SW-620 = system: SW-620
T47D = system: T47D
NCI-H460 = system: NCI-H460
IGROV-1 = system: IGROV-1
RXF 393 = system: RXF 393
SNB-19 = system: SNB-19
MDA-N = system: MDA-N
COLO 205 = system: COLO 205
KM12 = system: KM12
OVCAR-8 = system: OVCAR-8
BT-549 = system: BT-549
DU-145 = system: DU-145
SK-OV-3 = system: SK-OV-3
OVCAR-4 = system: OVCAR-4
PC-3 = system: PC-3
EKVX = system: EKVX
HOP-62 = system: HOP-62
UACC-257 = system: UACC-257
NCI/ADR-RES = system: NCI/ADR-RES
U-251 = system: U-251
A498 = system: A498
NCI-H226 = system: NCI-H226
RPMI-8226 = system: RPMI-8226
SK-MEL-28 = system: SK-MEL-28

With `Cn1nnc2c3c(N(CCO)CCO)ccnc3ccc21` the GI50 (SK-MEL-2) was > 100 µM (inactive), the GI50 (NCI-H23) was 97.9 µM (inactive) and the GI50 (SF-539) was 99.5 µM (inactive). For the same compound, the GI50 (786-0) was > 100 µM (inactive), the GI50 (HCC 2998) was 29.7 µM (inactive) and the GI50 (SN12C) was > 100 µM (inactive). For the same compound, the GI50 (UACC-62) was > 100 µM (inactive), the GI50 (ACHN) was > 100 µM (inactive) and the GI50 (HCT-116) was 54.2 µM (inactive). For the same compound, the GI50 (OVCAR-3) was > 100 µM (inactive), the GI50 (MCF7) was 47.9 µM (inactive) and the GI50 (HCT-15) was over 100 µM. For the same compound, the GI50 (HT-29) was 89.3 µM (inactive), the GI50 (SR) was 19.1 µM (inactive) and the GI50 (CAKI-1) was > 100 µM (inactive). For the same compound, the GI50 (CCRF-CEM) was > 100 µM (inactive), the GI50 (HL-60) was > 10 µM (inactive) and the GI50 (K562) was > 100 µM (inactive). The GI50 (Malme-3M) was > 100 µM (inactive), the GI50 (TK-10) was > 100 µM (inactive) and the GI50 (OVCAR-5) was > 100 µM (inactive). The GI50 (NCI-H522) was > 10 µM (inactive), the GI50 (M14) was > 100 µM (inactive) and the GI50 (Hs-578T) was > 100 µM (inactive). The GI50 (SF-295) was > 100 µM (inactive), the GI50 (LOX IMVI) was > 100 µM (inactive) and the GI50 (SF-268) was 87.5 µM (inactive). For the same compound, the GI50 (A549) was > 100 µM (inactive), the GI50 (UO-31) was > 100 µM (inactive) and the GI50 (SNB-75) was > 100 µM (inactive). For the same compound, the GI50 (MDA-MB-231) was > 100 µM (inactive), the GI50 (MOLT-4) was 47.4 µM (inactive) and the GI50 (SK-MEL-5) was > 100 µM (inactive). The GI50 (MDA-MB-435) was > 100 µM (inactive), the GI50 (SW-620) was > 100 µM (inactive) and the GI50 (T47D) was 59.3 µM (inactive). The GI50 (NCI-H460) was 39.9 µM (inactive), the GI50 (IGROV-1) was > 100 µM (inactive) and the GI50 (RXF 393) was > 100 µM (inactive). The GI50 (SNB-19) was 49.1 µM (inactive), the GI50 (MDA-N) was > 100 µM (inactive) and the GI50 (COLO 205) was 95.9 µM (inactive). The GI50 (KM12) was 97.5 µM (inactive), the GI50 (OVCAR-8) was > 100 µM (inactive) and the GI50 (BT-549) was > 100 µM (inactive). The GI50 (DU-145) was > 100 µM (inactive), the GI50 (SK-OV-3) was > 100 µM (inactive) and the GI50 (OVCAR-4) was > 100 µM (inactive). The GI50 (PC-3) was 65.6 µM (inactive), the GI50 (EKVX) was > 100 µM (inactive) and the GI50 (HOP-62) was 47.2 µM (inactive). For the same compound, the GI50 (UACC-257) was > 100 µM (inactive) and the GI50 (NCI/ADR-RES) was > 100 µM (inactive).

In the case of `CO/N=C(/C(=O)N(C(=O)/C(=N/OC)c1csc(NC(c2ccccc2)(c2ccccc2)c2ccccc2)n1)n1cnn(CC(=O)OC(C)(C)C)c1=O)c1csc(NC(c2ccccc2)(c2ccccc2)c2ccccc2)n1`, the GI50 (SK-MEL-2) is reported as 2.31 µM (inactive), the GI50 (NCI-H23) is reported as > 10 µM (inactive) and the GI50 (SF-539) is reported as > 10 µM (inactive). The GI50 (786-0) was > 10 µM (inactive), the GI50 (HCC 2998) was > 10 µM (inactive) and the GI50 (SN12C) was > 10 µM (inactive). The GI50 (UACC-62) was > 10 µM (inactive), the GI50 (U-251) was > 10 µM (inactive) and the GI50 (ACHN) was > 10 µM (inactive). For the same compound, the GI50 (HCT-116) was > 10 µM (inactive), the GI50 (OVCAR-3) was > 10 µM (inactive) and the GI50 (MCF7) was > 10 µM (inactive). For the same compound, the GI50 (A498) was > 10 µM (inactive), the GI50 (HCT-15) was over 10 µM and the GI50 (HT-29) was > 10 µM (inactive). The GI50 (CAKI-1) was > 10 µM (inactive), the GI50 (CCRF-CEM) was > 10 µM (inactive) and the GI50 (HL-60) was > 10 µM (inactive). For the same compound, the GI50 (NCI-H226) was > 10 µM (inactive), the GI50 (K562) was > 10 µM (inactive) and the GI50 (Malme-3M) was > 10 µM (inactive). For the same compound, the GI50 (TK-10) was > 10 µM (inactive), the GI50 (OVCAR-5) was > 10 µM (inactive) and the GI50 (NCI-H522) was > 10 µM (inactive). The GI50 (M14) was > 10 µM (inactive), the GI50 (Hs-578T) was > 10 µM (inactive) and the GI50 (SF-295) was > 10 µM (inactive). For the same compound, the GI50 (LOX IMVI) was > 10 µM (inactive), the GI50 (SF-268) was > 10 µM (inactive) and the GI50 (A549) was > 10 µM (inactive). The GI50 (UO-31) was 0.0139 µM (active), the GI50 (SNB-75) was > 10 µM (inactive) and the GI50 (MDA-MB-231) was > 10 µM (inactive). For the same compound, the GI50 (MOLT-4) was > 10 µM (inactive), the GI50 (SK-MEL-5) was > 10 µM (inactive) and the GI50 (MDA-MB-435) was > 10 µM (inactive). For the same compound, the GI50 (SW-620) was > 10 µM (inactive), the GI50 (T47D) was > 10 µM (inactive) and the GI50 (NCI-H460) was > 10 µM (inactive). For the same compound, the GI50 (IGROV-1) was > 10 µM (inactive), the GI50 (RXF 393) was > 10 µM (inactive) and the GI50 (SNB-19) was > 10 µM (inactive). For the same compound, the GI50 (MDA-N) was > 10 µM (inactive), the GI50 (COLO 205) was > 10 µM (inactive) and the GI50 (KM12) was > 10 µM (inactive). The GI50 (OVCAR-8) was > 10 µM (inactive), the GI50 (BT-549) was 2.16 µM (inactive) and the GI50 (RPMI-8226) was > 10 µM (inactive). For the same compound, the GI50 (DU-145) was > 10 µM (inactive), the GI50 (SK-OV-3) was > 10 µM (inactive) and the GI50 (OVCAR-4) was > 10 µM (inactive). The GI50 (PC-3) was 1.87 µM (inactive), the GI50 (EKVX) was > 10 µM (inactive) and the GI50 (HOP-62) was > 10 µM (inactive). The GI50 (UACC-257) was > 10 µM (inactive), the GI50 (NCI/ADR-RES) was > 10 µM (inactive) and the GI50 (SK-MEL-28) was > 10 µM (inactive).
